Values after ≈ are worked out from the molar mass of the structure shown. Active and inactive are the calls of the source. The rule behind the calls is not given here. Where a SMILES comes first, the peptide text is derived from it. Bridges are numbered along the chain shown (N, C = ends). [ ]: non-standard residue; d: D form. The star is where a group is joined. X1 = CC[C@H](C)CCCCC(=O)*; Dab = NCC[C@H](N)C(=O)O
Key:
[1] = test system: Pseudomonas aeruginosa; assay: Antimicrobial activity against Pseudomonas aeruginosa ATCC 27853 assessed as reduction of bacterial growth incubated for 18 hrs by CLSI protocol based broth microdilution method; type: functional
[2] = test system: Lipopolysaccharide (LPS); assay: Binding affinity to LPS (unknown origin) assessed as reduction in bactericidal activity against Escherichia coli ATCC 25922 at 2 times MIC incubated for 2 hrs in presence of 32 ug/ml of LPS by competitive binding assay
[3] = test system: Escherichia coli; assay: Synergistic antibacterial activity against rifampicin-resistant Escherichia coli ATCC 25922 assessed as fractional inhibitory concentration index incubated for 18 hrs in presence of rifampicin by checker board assay; type: functional
[4] = test system: Escherichia coli; assay: Antimicrobial activity against Escherichia coli ATCC 25922 assessed as breakage of cell membrane measured after 4 hrs by SEM analysis; type: functional, organism-based
[5] = test system: Escherichia coli; assay: Antimicrobial activity against Escherichia coli ATCC 25922 assessed as swollen cell membrane measured after 0.5 to 2 hrs by SEM analysis; type: functional, organism-based; conditions: time 0.5-2 hrs
[6] = Acute toxicity in Kunming mouse assessed as pulmonary congestion at 25 mg/kg, ip by H and E staining based analysis; type: organism-based; conditions: in vivo
[7] = test system: Staphylococcus aureus; assay: Bactericidal activity against Staphylococcus aureus ATCC 25923 assessed as time required to kill bacteria at 2 times MIC by time-killing assay; type: functional
[8] = test system: Cell membrane; assay: Induction of cytoplasmic membrane depolarization in […] assessed as increase in fluorescence intensity at 1 to 4 times MIC measured after 1 min by DiSC3-5 dye based fluorescence method; type: subcellular
[9] = Acute toxicity in ip dosed Kunming mouse assessed as lethal dose; type: organism-based; conditions: in vivo
[10] = test system: Staphylococcus aureus; assay: Induction of drug resistance in Staphylococcus aureus ATCC 25923 assessed as increase in MIC after 10 passages by CLSI protocol based broth microdilution method; type: functional
[11] = Acute toxicity in Kunming mouse assessed as swollen kidney cells at 25 mg/kg, ip by H and E staining based analysis; type: organism-based; conditions: in vivo
[12] = Acute toxicity in Kunming mouse assessed as respiratory depression in lungs by measuring mortality at 19 to 30 mg/kg, ip within 1 hr; type: organism-based; conditions: in vivo, dose 19-30 mg/kg
[13] = test system: Escherichia coli; assay: Synergistic antibacterial activity against kanamycin-resisitant Escherichia coli ATCC 25922 assessed as fractional inhibitory concentration index incubated for 18 hrs in presence of kanamycin by checker board assay; type: functional
[14] = test system: Enterococcus faecalis; assay: Antimicrobial activity against Enterococcus faecalis ATCC 29212 assessed as reduction of bacterial growth incubated for 18 hrs by CLSI protocol based broth microdilution method; type: functional
[15] = test system: Staphylococcus aureus; assay: Antimicrobial activity against Staphylococcus aureus ATCC 25923 assessed as reduction of bacterial growth incubated for 18 hrs by CLSI protocol based broth microdilution method; type: functional
[16] = test system: Cell membrane; assay: Induction of cytoplasmic membrane depolarization in Staphylococcus aureus ATCC 25923 assessed as increase in fluorescence intensity at 4 times MIC measured after 1 min by DiSC3-5 dye based fluorescence method; type: subcellular
[17] = test system: Escherichia coli; assay: Synergistic antibacterial activity against meropenem-resistant Escherichia coli ATCC 25922 assessed as fractional inhibitory concentration index incubated for 18 hrs in presence of meropenem by checker board assay; type: functional
[18] = test system: Klebsiella pneumoniae; assay: Antimicrobial activity against Klebsiella pneumoniae ATCC 700603 assessed as reduction of bacterial growth incubated for 18 hrs by CLSI protocol based broth microdilution method; type: functional
[19] = test system: Escherichia coli; assay: Antimicrobial activity against Escherichia coli ATCC 25922 assessed as reduction of bacterial growth incubated for 18 hrs by CLSI protocol based broth microdilution method; type: functional
[20] = test system: Erythrocyte; assay: Hemolytic activity in mouse red blood cells assessed as release of hemoglobin incubated for 1 hr by microplate reader method; type: toxicity, cell-based
[21] = test system: Cell membrane; assay: Induction of cytoplasmic membrane depolarization in Pseudomonas aeruginosa ATCC 27853 assessed as increase in fluorescence intensity at 1 to 4 times MIC measured after 1 min by DiSC3-5 dye based fluorescence method; type: subcellular
[22] = test system: Bacillus subtilis; assay: Antimicrobial activity against Bacillus subtilis ATCC 23857 assessed as reduction of bacterial growth incubated for 18 hrs by CLSI protocol based broth microdilution method; type: functional
[23] = test system: Staphylococcus epidermidis; assay: Antimicrobial activity against Staphylococcus epidermidis ATCC 12228 assessed as reduction of bacterial growth incubated for 18 hrs by CLSI protocol based broth microdilution method; type: functional
[24] = Cytotoxicity against human HK-2 cells assessed as reduction in cell viability incubated for 1 hr by resazurin based microplate reader method; type: toxicity
[25] = Acute toxicity in Kunming mouse assessed as increased interalveolar space at 25 mg/kg, ip by H and E staining based analysis; type: organism-based; conditions: in vivo
[26] = test system: Cell membrane; assay: Induction of inner membrane permeabilization in Escherichia coli ML-35 ATCC 43587 at 1 to 4 times MIC by ONPG based assay; conditions: DDE = dose-dependent effect
[27] = test system: Staphylococcus aureus; assay: Antibacterial activity against Staphylococcus aureus ATCC 25923 infected in BALB/c mouse assessed as reduction in bacterial load in lung at 5 to 10 mg/kg, ip measured after 4 to 12 hrs (reference value: 5.6 x 10^6 CFU/g); type: functional; conditions: dose 5-10 mg/kg, time 4-12 hrs
[28] = test system: Staphylococcus aureus; assay: Synergistic antibacterial activity against rifampicin-resistant Staphylococcus aureus ATCC 25923 assessed as fractional inhibitory concentration index incubated for 18 hrs in presence of rifampicin by checker board assay; type: functional
[29] = Acute toxicity in Kunming mouse assessed as distortion of alveolar morphology at 25 mg/kg, ip by H and E staining based analysis; type: organism-based; conditions: in vivo

## CC[C@H](C)CCCCC(=O)N[C@@H](CCN)C(=O)N[C@H](C(=O)N[C@@H](CCN)C(=O)N[C@H]1CCNC(=O)[C@H]([C@@H](C)O)NC(=O)[C@H](CCN)NC(=O)[C@H](CCN)NC(=O)[C@H](CC(C)C)NC(=O)[C@@H](Cc2ccccc2)NC(=O)[C@H](CCN)NC1=O)[C@@H](C)O (X1-[Dab]T[Dab][Dab][Dab][dF]L[Dab][Dab]T; lactam 4-C)
[1]
  MIC: 2 µM (≈ 2.41 µg/mL)
[2]
  Activity: Active
[3]
  fractional inhibitory concentration index (FICI): 0.3125
[4]
  Activity: Active
[5]
  Activity: Active
[6]
  Activity: Toxic
[7]
  Time: 6 h
[8]
  Activity: Active
[9]
  LD50: 25.5 mg/kg
[10]
  Activity: Active
[11]
  Activity: Toxic
[12]
  Activity: Toxic
[13]
  fractional inhibitory concentration index (FICI): 0.25
[14]
  MIC: 128 µM (≈ 154 µg/mL)
[15]
  MIC: 16 µM (≈ 19.3 µg/mL)
[16]
  Activity: Active
[17]
  fractional inhibitory concentration index (FICI): 1.25
[18]
  MIC: 4 µM (≈ 4.81 µg/mL)
[19]
  MIC: 4 µM (≈ 4.81 µg/mL)
[20]
  HC10: > 256 µM
[21]
  Activity: Active
[22]
  MIC: 4 µM (≈ 4.81 µg/mL)
[23]
  MIC: 16 µM (≈ 19.3 µg/mL)
[24]
  CC50 at 1 h: > 128 µM
[25]
  Activity: Toxic
[26]
  Activity: Dde
[27]
  Activity: 0 CFU/g
[28]
  fractional inhibitory concentration index (FICI): 0.75
[29]
  Activity: Toxic
